Measured values taken from patent US10676509B2, “Surface-immobilized antimicrobial peptoids” (Northwestern University, priority 2008, dated 2020).
In brackets after ≈: the same amount, converted by molar mass. Read-outs that look alike come from different tables or passages of the source. Starred links: 1 amine or outer side, 2 acyl side, 3 side chain; linkers in the order of their positions; H or OH if unused. Non-standard residues stand in square brackets, D forms with d. Residues, ends and D or L forms follow the SMILES beside them. N(1S-Me-propyl)Gly = CC[C@H](C)NCC(=O)O; Dopa = N[C@@H](Cc1ccc(O)c(O)c1)C(=O)O; X1 = O=C(CN(CC(F)(F)F)[*:1])[*:2]; Nspe = C[C@H](NCC(=O)O)c1ccccc1; Nlys = NCCCCNCC(=O)O; Nme = COCCNCC(=O)O

Key:
E. coli [1] = assay type: cell-based, Escherichia coli (ATCC 35218)
Description: (§1) The polymers were initially tested to determine their antibacterial properties in the solution state. Antibacterial activities of the compounds were tested using the methods described above for both Gram-negative and Gram-positive bacterial strains.
(§2) The minimum inhibitory concentration (MIC) for each polymer was determined according to Clinical Laboratory Standards Institute (CLSI) broth microdilution protocols (M7-A6). The procedure explained previously was followed (Chongsiriwatana et al., supra); briefly, serial dilutions of the polymers were prepared in Mueller-Hinton broth (MHB) in 96-well microtiter plates and bacterial inoculum in MHB was added to each well (˜5.0×10^4 CFU/well). Optical density was monitored at 590 nm for 16 h at 35° C.

B. subtilis = assay type: cell-based, Bacillus subtilis (ATCC 6633); conditions: 16 h
Description: as §1, §2

S. epidermidis = assay type: cell-based, Staphylococcus epidermidis RP62A (ATCC 12228); conditions: 16 h
Description: as §1, §2

P. aeruginosa = assay type: cell-based, Pseudomonas aeruginosa (ATCC 700829); conditions: 16 h
Description: as §1, §2

E. coli [2] = experiment: Antibacterial activity on surfaces: bacterial adhesion and membrane permeation (FITC) on modified TiO2 slides; assay type: cell-based, Escherichia coli; conditions: for E. coli attachment to modified TiO2: 2 h exposure, compared with bare TiO2; for Percent FITC-stained bacteria: compared among surfaces
Description: Bacterial experiments on modified TiO2 slides were performed by exposing the surfaces to an E. coli suspension for two hours and then centrifuging to remove unattached and weakly attached bacteria. The bacteria remaining on the surfaces were imaged in phase contrast for determination of cell numbers, and in fluorescence after staining with FITC to detect cells with compromised membranes. From these images, total number of adherent bacteria (from phase contrast) and percent of attached cells with compromised membranes (from FITC staining) were determined and are shown in Table 3.
E. coli were streaked from frozen stocks onto Mueller-Hinton agar and incubated overnight at 37° C. A few colonies were then used to inoculate 25 ml of sterile Mueller-Hinton broth (MHB) and grown overnight at 37° C. TiO2-coated glass slides were modified with the polymers using the previously described procedure. Two-well chambers were clamped to the slides and sealed by injecting silastic resin, which was allowed to cure overnight. Slides were sterilized by exposure to UV light for 10 minutes. The bacterial suspension was concentrated by centrifugation and resuspended in PBS at a concentration of 5×10^7 CFU/ml; 2 ml of the E. coli suspension was added to each slide chamber. Slide chambers were covered and placed in a humidified incubator at 37° C.; after 2 h, nonadherent bacteria were removed by inverted centrifugation for 2 min at 30 rcf in sealed bags filled with PBS (Jensen et al., 2004). […] Slides were rinsed with PBS and imaged by confocal microscopy equipped with an inverted microscope (Leica TCS SP2). Phase contrast and fluorescent (488-nm band-pass filter for excitation of FITC) images were taken at identical locations to determine bacterial cell count and percent stained with FITC. The microscopy images were quantified using thresholding in ImageJ, and averages with standard deviations for at least nine images from one slide are reported. While slides were prepared in duplicate or triplicate and consistency was qualitatively confirmed between experimental samples, the reported counts and images were obtained from a single slide for each condition.

[3] = system: E. coli, B. subtilis, S. epidermidis and P. aeruginosa; experiment: Antibacterial activity in solution (MIC), statements for all bacterial strains; assay type: cell-based; conditions: for Antibacterial activity in solution: tested concentrations
Description: as §1, §2

Row | SMILES | MIC E. coli (E. coli [1]; solution, MHB, 16 h at 35° C.) [µM] | MIC B. subtilis (B. subtilis) [µM] | MIC S. epidermidis (S. epidermidis) [µM] | MIC P. aeruginosa (P. aeruginosa) [µM] | MIC E. coli (E. coli [1]; 16 h) [µM] | E. coli attachment to modified TiO2 (E. coli [2]) | Total number of FITC-stained bacteria relative to PMP110 surfaces (E. coli [2]; adhered E. coli, 2 h) | Percent FITC-stained bacteria (E. coli [2]; adhered E. coli) | MIC relative to AMP alone (times greater) [3] | Antibacterial activity in solution [3]
1 | C[C@@H](c1ccccc1)N(CC(N)=O)C(=O)CN(C(=O)CN(CCCCN)C(=O)CN(C(=O)CN(C(=O)CN(CCCCN)C(=O)[C@@H]1CCCN1C(=O)CN(C(=O)CN(CCCCN)C(=O)CN(C(=O)CN(C(=O)CNCCCCN)[C@@H](C)c1ccccc1)[C@@H](C)c1ccccc1)[C@@H](C)c1ccccc1)[C@@H](C)c1ccccc1)[C@@H](C)c1ccccc1)[C@@H](C)c1ccccc1 [AMP, H-NLys-Nspe-Nspe-NLys-Nspe-Pro-[NLys-Nspe-Nspe]2—NH2] (H-[Nlys][Nspe][Nspe][Nlys][Nspe]P[Nlys][Nspe][Nspe][Nlys][Nspe][Nspe]-NH2) | 12.5 (≈ 21.9 µg/mL) | 1.6 (≈ 2.81 µg/mL) | 1.6 (≈ 2.81 µg/mL) | 25 (≈ 43.9 µg/mL) |  |  |  |  |  | 
2 | COCCN(CC(=O)N(CCOC)CC(=O)N(CCOC)CC(=O)N(CCOC)CC(=O)N(CCOC)CC(=O)N(CCOC)CC(=O)N(CCOC)CC(=O)N(CCOC)CC(=O)N(CCOC)CC(=O)N(CCOC)CC(=O)N(CC(=O)N[C@@H](Cc1ccc(O)c(O)c1)C(=O)N[C@@H](CCCCN)C(=O)N[C@@H](Cc1ccc(O)c(O)c1)C(=O)N[C@@H](CCCCN)C(=O)N[C@@H](Cc1ccc(O)c(O)c1)C(N)=O)CC(F)(F)F)C(=O)CN(CCOC)C(=O)CN(CCOC)C(=O)CN(CCOC)C(=O)CN(CCOC)C(=O)CN(CCOC)C(=O)CN(CCOC)C(=O)CN(CCOC)C(=O)CN(CCOC)C(=O)CN(CCOC)C(=O)CN(CCOC)C(=O)CN(C(=O)CN(C(=O)CN(CCCCN)C(=O)CN(C(=O)CN(C(=O)CN(CCCCN)C(=O)[C@@H]1CCCN1C(=O)CN(C(=O)CN(CCCCN)C(=O)CN(C(=O)CN(C(=O)CNCCCCN)[C@@H](C)c1ccccc1)[C@@H](C)c1ccccc1)[C@@H](C)c1ccccc1)[C@@H](C)c1ccccc1)[C@@H](C)c1ccccc1)[C@@H](C)c1ccccc1)[C@@H](C)c1ccccc1 [PMP1-AMP] (H-[Nlys][Nspe][Nspe][Nlys][Nspe]P[Nlys][Nspe][Nspe][Nlys][Nspe][Nspe][Nme][Nme][Nme][Nme][Nme][Nme][Nme][Nme][Nme][Nme][Nme][Nme][Nme][Nme][Nme][Nme][Nme][Nme][Nme][Nme][X1][Dopa]K[Dopa]K[Dopa]-NH2) |  | 3.1 (≈ 15.5 µg/mL) | 3.1 (≈ 15.5 µg/mL) | 200 (≈ 998 µg/mL) | 50 (≈ 250 µg/mL) | comparable to bare TiO2 surfaces | more than ten times greater | highest percentage of bacterial cells with compromised membranes | 2-4 times | active against all bacterial strains
3 | CC[C@H](C)N(CC(=O)N(CCCCN)CC(=O)N(CC(=O)N(CC(=O)N(CCCCN)CC(=O)N(CC(=O)N(CC(=O)N(CCCCN)CC(=O)N(CC(=O)N(CC(=O)N(CCOC)CC(=O)N(CCOC)CC(=O)N(CCOC)CC(=O)N(CCOC)CC(=O)N(CCOC)CC(=O)N(CCOC)CC(=O)N(CCOC)CC(=O)N(CCOC)CC(=O)N(CCOC)CC(=O)N(CCOC)CC(=O)N(CCOC)CC(=O)N(CCOC)CC(=O)N(CCOC)CC(=O)N(CCOC)CC(=O)N(CCOC)CC(=O)N(CCOC)CC(=O)N(CCOC)CC(=O)N(CCOC)CC(=O)N(CCOC)CC(=O)N(CCOC)CC(=O)N(CC(=O)N[C@@H](Cc1ccc(O)c(O)c1)C(=O)N[C@@H](CCCCN)C(=O)N[C@@H](Cc1ccc(O)c(O)c1)C(=O)N[C@@H](CCCCN)C(=O)N[C@@H](Cc1ccc(O)c(O)c1)C(N)=O)CC(F)(F)F)[C@@H](C)CC)[C@@H](C)CC)[C@@H](C)CC)[C@@H](C)CC)[C@@H](C)CC)[C@@H](C)CC)C(=O)CN(C(=O)CNCCCCN)[C@@H](C)CC [PMP1-C, reference compound] (H-[Nlys][N(1S-Me-propyl)Gly][N(1S-Me-propyl)Gly][Nlys][N(1S-Me-propyl)Gly][N(1S-Me-propyl)Gly][Nlys][N(1S-Me-propyl)Gly][N(1S-Me-propyl)Gly][Nlys][N(1S-Me-propyl)Gly][N(1S-Me-propyl)Gly][Nme][Nme][Nme][Nme][Nme][Nme][Nme][Nme][Nme][Nme][Nme][Nme][Nme][Nme][Nme][Nme][Nme][Nme][Nme][Nme][X1][Dopa]K[Dopa]K[Dopa]-NH2) |  | >100 | >100 | >100 | >100 | much higher than PMP1-AMP and TiO2 surfaces |  | low and comparable to the control TiO2 substrates |  | not active at the tested concentrations
4 | CC[C@H](C)N(CC(N)=O)C(=O)CN(C(=O)CN(CCCCN)C(=O)CN(C(=O)CN(C(=O)CN(CCCCN)C(=O)CN(C(=O)CN(C(=O)CN(CCCCN)C(=O)CN(C(=O)CN(C(=O)CNCCCCN)[C@@H](C)CC)[C@@H](C)CC)[C@@H](C)CC)[C@@H](C)CC)[C@@H](C)CC)[C@@H](C)CC)[C@@H](C)CC [Peptoid C, H-[NLys-Nssb-Nssb]4-NH2, reference compound] (H-[Nlys][N(1S-Me-propyl)Gly][N(1S-Me-propyl)Gly][Nlys][N(1S-Me-propyl)Gly][N(1S-Me-propyl)Gly][Nlys][N(1S-Me-propyl)Gly][N(1S-Me-propyl)Gly][Nlys][N(1S-Me-propyl)Gly][N(1S-Me-propyl)Gly]-NH2) |  | >100 | >100 | >100 | >100 |  |  |  |  | not active at the tested concentrations
